The text below walks through data of ChEMBL document CHEMBL5252530, “Biological importance of structurally diversified chromenes” (Eur J Med Chem, 2016).

In brackets after ≈: the same amount, converted by molar mass. Where only a bound is given, the exact number is not on record here.

The subject of series [1] is KB. Kind of series: Cytotoxicity against human KB cells assessed as inhibition of cell growth incubated for 72 hrs by neutral red dye based colorimetric assay. It counts as functional.
Series [2] deals with Human immunodeficiency virus 1. Kind of series: Antiviral activity against HIV-1 3B in human H9 cells incubated for 4 days by ELISA. Type of series: functional, organism-based. The settings on record: Human immunodeficiency virus 1, 3B, H9, 96 h. A general note: An ELISA detects its analyte on a solid surface through an enzyme-linked reagent.
Series [3] is described as follows: Therapeutic index, ratio of IC50 for human H9 cells to EC50 for HIV-1 3B in human H9 cells. Type of series: toxicity, cell-based. To be noted: read-out: Ratio IC50/EC50.
In series [4] the target is T1, Acetylcholinesterase (Electrophorus electricus, UniProt O42275). Kind of series: Competitive inhibition of electric eel acetyl cholinesterase measured for 3 mins by Ellman's method. On the technique in general: DTNB colorimetry detects thiols as they appear.
T1 sequence (O42275 whole entry): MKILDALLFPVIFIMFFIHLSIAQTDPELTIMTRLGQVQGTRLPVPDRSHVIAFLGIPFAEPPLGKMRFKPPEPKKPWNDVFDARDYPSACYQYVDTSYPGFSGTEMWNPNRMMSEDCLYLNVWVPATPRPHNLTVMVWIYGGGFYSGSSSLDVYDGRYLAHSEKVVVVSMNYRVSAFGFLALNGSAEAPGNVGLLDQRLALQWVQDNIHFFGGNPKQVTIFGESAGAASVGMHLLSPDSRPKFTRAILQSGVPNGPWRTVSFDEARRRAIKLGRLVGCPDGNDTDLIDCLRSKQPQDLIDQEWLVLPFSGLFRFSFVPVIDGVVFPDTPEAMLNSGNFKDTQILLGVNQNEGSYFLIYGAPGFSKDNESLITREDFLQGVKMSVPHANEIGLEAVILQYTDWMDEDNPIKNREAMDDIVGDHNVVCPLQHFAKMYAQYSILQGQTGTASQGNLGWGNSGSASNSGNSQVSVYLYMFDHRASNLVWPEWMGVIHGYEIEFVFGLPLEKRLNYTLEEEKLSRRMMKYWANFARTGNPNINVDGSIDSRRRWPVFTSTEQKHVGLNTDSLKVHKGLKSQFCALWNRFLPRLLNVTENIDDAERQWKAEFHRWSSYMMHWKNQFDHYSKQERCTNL
Series [5] addresses T1, Acetylcholinesterase. Briefly: Inhibition of electric eel AChE (type VI-S) using acetylthiocholine iodide as substrate preincubated for 15 mins followed by substrate addition by Ellman's method.
Series [6] has as its target Acetylcholinesterase (Homo sapiens, UniProt P22303). Briefly: Inhibition of recombinant human AChE assessed as hydrolysis of acetylthiocholine by Ellman's method.
The target in series [7] is Chymotrypsinogen A (Bos taurus) (UniProt P00766). Briefly: Inactivation of bovine alpha-chymotrypsin assessed as Ki/KI ratio at pH 7.5.
Series [8] is described as follows: Inhibition of ECE (unknown origin). The arrangement: species or system Homo sapiens.
The nature of series [9]: Cytotoxicity against human Lu1 cells. It counts as functional. The settings on record: read-out: ED50 (the source's name).
The test system of series [10] is Col2. Kind of series: Cytotoxicity against human Col2 cells. The settings on record: read-out: ED50 (the source's name). Type of series: functional.
In series [11] the test system is KB. Briefly: Cytotoxicity against human KB cells. Type of series: functional. The settings on record: read-out: ED50 (the source's name).
Series [12] relates to LNCaP. Kind of series: Cytotoxicity against human LNCaP cells. It counts as functional. To be noted: read-out: ED50 (the source's name).
Series [13] has as its system Rattus norvegicus. Briefly: Antiinflammatory activity in rat assessed as inhibition of the carrageenan-induced right hind paw edema at 0.1 mmol/kg. Set-up: scale not given: the % may be the effect or the level left. Type of series: functional. (In general: The carrageenan paw model is a standard test of acute inflammation.)
For series [14], the target named is Cannabinoid receptor 2 (Homo sapiens, UniProt P34972). Briefly: Binding affinity to CB2 (unknown origin).
Chain of Cannabinoid receptor 2 (P34972 whole entry): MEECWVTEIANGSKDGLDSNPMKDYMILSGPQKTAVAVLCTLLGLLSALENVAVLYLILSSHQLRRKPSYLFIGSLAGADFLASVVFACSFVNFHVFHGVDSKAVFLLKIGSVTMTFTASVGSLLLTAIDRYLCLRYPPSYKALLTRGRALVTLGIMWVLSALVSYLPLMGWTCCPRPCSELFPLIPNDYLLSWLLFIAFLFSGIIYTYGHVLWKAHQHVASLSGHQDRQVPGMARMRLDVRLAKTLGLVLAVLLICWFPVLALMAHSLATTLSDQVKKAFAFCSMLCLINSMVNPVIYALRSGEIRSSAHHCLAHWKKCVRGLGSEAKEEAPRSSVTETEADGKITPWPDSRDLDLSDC
Series [15] concerns the target Chymotrypsinogen A (Bos taurus) (UniProt P00766). Kind of series: Inactivation of bovine alpha-chymotrypsin assessed as Ki/KI ratio.
Series [16] has as its system Planktothrix perornata. Briefly: Algicidal activity against Planktothrix perornata. Type of series: functional, organism-based.
The subject of series [17] is Selenastrum capricornutum. Briefly: Algicidal activity against Selenastrum capricornutum. It counts as functional, organism-based.
Series [18] addresses 5-hydroxytryptamine receptor 1B (Rattus norvegicus, UniProt P28564). Briefly: Binding affinity to rat 5-HT1B.
Series [19] in a line: Binding affinity to bovine 5-HT1B. The arrangement: species or system Bos taurus.
Series [20] can be described thus: Selectivity ratio of Ki for bovine 5-HT1B to rat 5-HT1B.
Series [21] has as its system Leishmania major. Briefly: Antileishmanial activity against Leishmania major promastigotes assessed as inhibition of [3H]thymidine uptake preincubated for 2 hrs followed by addition of [3H]thymidine measured after 18 hrs by scintillation counting. It counts as functional, organism-based.
Series [22] deals with Plasmodium falciparum. Kind of series: Antimalarial activity against chloroquine-susceptible Plasmodium falciparum 3D7. It counts as functional, organism-based.
The subject of series [23] is Plasmodium falciparum. Briefly: Antimalarial activity against chloroquine-resistant Plasmodium falciparum Dd2. Type of series: functional, organism-based.

Chain of Acetylcholinesterase (Homo sapiens, UniProt P22303) (P22303 whole entry): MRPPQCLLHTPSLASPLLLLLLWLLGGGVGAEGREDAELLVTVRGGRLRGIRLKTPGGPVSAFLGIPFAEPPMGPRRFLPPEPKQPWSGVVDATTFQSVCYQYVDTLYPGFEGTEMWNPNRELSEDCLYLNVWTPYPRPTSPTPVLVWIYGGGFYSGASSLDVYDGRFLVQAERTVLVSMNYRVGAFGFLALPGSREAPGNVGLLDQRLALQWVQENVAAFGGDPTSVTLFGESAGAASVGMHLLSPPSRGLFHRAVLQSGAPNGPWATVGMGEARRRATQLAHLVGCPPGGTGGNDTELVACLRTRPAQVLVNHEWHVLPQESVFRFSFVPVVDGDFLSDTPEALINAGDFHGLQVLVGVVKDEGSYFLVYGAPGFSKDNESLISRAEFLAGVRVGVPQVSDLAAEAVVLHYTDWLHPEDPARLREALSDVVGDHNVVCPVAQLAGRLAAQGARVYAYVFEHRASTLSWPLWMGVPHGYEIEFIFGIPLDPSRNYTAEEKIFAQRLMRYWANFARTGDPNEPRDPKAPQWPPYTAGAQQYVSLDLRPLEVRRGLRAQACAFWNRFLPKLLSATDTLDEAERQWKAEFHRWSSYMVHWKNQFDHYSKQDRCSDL
Chain of 5-hydroxytryptamine receptor 1B (P28564 whole entry): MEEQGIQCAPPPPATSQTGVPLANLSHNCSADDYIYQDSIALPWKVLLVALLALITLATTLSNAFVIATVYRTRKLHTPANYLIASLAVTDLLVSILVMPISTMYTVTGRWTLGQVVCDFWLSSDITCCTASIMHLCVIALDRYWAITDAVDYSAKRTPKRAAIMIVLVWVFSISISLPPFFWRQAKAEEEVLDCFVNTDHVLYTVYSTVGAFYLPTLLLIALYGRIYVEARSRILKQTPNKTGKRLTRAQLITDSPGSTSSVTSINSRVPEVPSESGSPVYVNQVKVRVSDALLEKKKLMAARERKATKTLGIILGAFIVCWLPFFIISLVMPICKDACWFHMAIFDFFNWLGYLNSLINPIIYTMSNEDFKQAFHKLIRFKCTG

As to `C=C(C)C(O)Cc1c(O)c(C(=O)C(C)C)c(O)c2c(-c3ccccc3)cc(=O)oc12` (stereo unspecified), the IC50 in [1] is 4 µg/mL (≈ 9.79 µM).
Turning to `CC(C)=CCC/C(C)=C/CC[C@@]1(C)C=Cc2c(cc(C)c(C(=O)O)c2O)O1` [DAURICHROMENIC ACID], the EC50 in series [2] was determined as 5.67 µg/mL (≈ 15.3 µM). Moreover, the selectivity ratio in series [3] amounted to 3.71.
For the molecule `CC(C)=CCCC1(C)C=Cc2c(cc(O)c3c(=O)c4cccc(O)c4oc23)O1` (stereo unspecified), in [4], affinity was put at a Ki of 1900 nM. In series [5], this molecule returned an IC50 of 8470 nM and a Ki of 3430 nM.
Consider `CCN(Cc1ccccc1)Cc1ccc(-c2cc3cc(OC)c(OC)cc3oc2=O)cc1`, for which the Ki in series [6] was found to be 10.5 nM.
For the molecule `O=C(Oc1cccc(Cl)c1)c1cc2cc(CCl)ccc2oc1=O`, the Ratio in [7] was 7.6 10^5/M/s.
Regarding `CC1(C)C=Cc2c(ccc3c2O[C@H](O)[C@H]2c4ccc(O)cc4O[C@@H]32)O1`, in series [8], half-maximal inhibition (IC50) required 9000 nM.
`CCC(C)c1cc(=O)oc2c(C(=O)CC(C)CO)c(O)c(CC=C(C)C)c(O)c12` (stereo unspecified): the EC50 in [9], in [10], in [11] and in series [12] was 11.1 µg/mL (≈ 27.6 µM) throughout.
Turning to `Cc1cc(=O)oc2c3c(ccc12)OC(C)(c1ccccc1)O3` (stereo unspecified), the Activity in series [13] is on record as 55%.
`CCCCCCC(C)(C)c1cc(O)c2c(c1)oc(=O)c1ccc(C)cc12` showed a Ki in [14] of 3.1 nM.
`C=C(C)C(O)Cc1c(O)c(C(=O)C(C)CC)c(O)c2c(-c3ccccc3)cc(=O)oc12` (stereo unspecified): the IC50 in series [1] stood at 4 µg/mL (≈ 9.47 µM).
In the case of `COc1ccc2c(c1)c(CC(=O)O)c(C)n2C(=O)c1ccc(Cl)cc1` [INDOMETHACIN], the Activity in series [13] came to 47%.
On to `COc1cc2cc(-c3ccc(CN(C)Cc4ccccc4)cc3)c(=O)oc2cc1OC`, for which, in series [6], the Ki was 44.5 nM.
As to `O=C(Oc1cccc(Cl)n1)c1cc2cc(CCl)ccc2oc1=O`, the Ratio in series [15] was 1.1 10^5/M/s.
Take `CC(C)CC(=O)N(C)CCc1ccc2c(c1)C=CC(C)(C)O2`: the Activity in [16] was found to be 10 µM; in series [17], 100 µM. For the same molecule, the IC50 amounted to 2300 nM in series [16] (Planktothrix perornata) and 12600 nM in series [17] (Selenastrum capricornutum).
As for `COc1cc2cc(-c3ccc(CN(CCO)Cc4ccccc4)cc3)c(=O)oc2cc1OC`, in series [6], the Ki came to 10.5 nM.
Consider `C1=C(CN2CCOCC2)COc2c1cccc2OCC1COCCN1` (stereo unspecified), for which the Ki in series [18] amounted to 47 nM; in series [19] it was 630 nM. The Ratio Ki in series [20] was 13.
For the molecule `Cc1cccc2oc(=O)c3c(c12)O[C@@H](C)[C@@]3(C)CC(=O)C1OC1(C)C` (stereo partly specified), the half-inhibitory concentration (IC50) in series [21] is 13400 nM; in series [22] it was greater than 50000 nM; in [23] it was greater than 50000 nM.
As to `C=C(C)C(O)Cc1c(O)c(C(=O)C(C)CC)c(O)c2c(CCC)cc(=O)oc12` (stereo unspecified), the IC50 in series [1] amounted to 4 µg/mL (≈ 10.3 µM).
With `COc1cc2cc(-c3ccc(C[N+](C)(C)Cc4ccccc4)cc3)c(=O)oc2cc1OC`, the Ki in series [6] was determined as 10.5 nM.
`CC(C)CC(=O)c1c(O)cc(O)c2c(-c3ccccc3)cc(=O)oc12` [ISODISPAR B]: the IC50 in series [1] came out at 4 µg/mL (≈ 11.8 µM).
In the case of `Cc1cccc2oc(=O)c3c(c12)O[C@H](C)[C@@]3(C)CC(=O)C1OC1(C)C` (stereo partly specified), the IC50 in series [22] and in series [23] was greater than 50000 nM in each case.
On to `CCOC(=O)C1(CC)Oc2ccc3c(C)cc(=O)oc3c2O1` (stereo unspecified), for which the Activity in [13] is 55%.
As for `CC(C)=CCc1c(O)c(C(=O)CC(C)CO)c2oc(=O)cc(-c3ccccc3)c2c1O` (stereo unspecified), the EC50 in series [9], in series [10], in series [11] and in series [12] was 11.1 µg/mL (≈ 26.3 µM) each time.
On to `CCCCCCC(C)(C)c1cc(O)c2c(c1)oc(=O)c1ccc(OC)cc12`, for which, in series [14], the Ki was 6.7 nM.

Broadly, the IC50 is the concentration needed to halve the response being measured. By Ki is commonly meant a measure of affinity in units of concentration, obtained from inhibition or displacement.
